We go through nine molecules from paper PMC5737775 (Journal of Alzheimer's disease : JAD, 2017).

The term IC50 denotes the concentration that inhibits the measured activity by half. Low readings indicate higher potency, high ones lower potency.

Data set [1] deals with rAβ42 (Aβ1-42) aggregation (Homo sapiens, UniProt P05067). The data set can be described thus: Thioflavin T assay of Aβ42 aggregation. The data set is classed as biochemical. As to conditions: for anti-aggregation activity, result in words: Aβ1-42, 48 h, thioflavin T, 1, 3, 10, 30 μM.
The subject of data set [2] is peritoneal macrophages. The data set is described as follows: MTT cytotoxicity assay on peritoneal macrophages. The class given is cell-based, C57Bl/6 mice. The following applies: for cell viability (MTT): at the concentrations tested (1, 3, 10, 30 μM).
Data set [3] relates to IL-6 production by peritoneal macrophages stimulated with LPS. The data set can be described thus: IL-6 secretion by LPS-stimulated murine peritoneal macrophages. The class given is cell-based, C57Bl/6 mice. The following applies: for inhibition of IL-6 at 30 μM: 30 μM compound, LPS 10 ng/mL; for anti-inflammatory activity (IL-6 secretion), result in words: LPS-stimulated macrophages, 1, 3, 10, 30 μM.

Sequence of rAβ42 (Aβ1-42) aggregation (P05067 672-713 limits assumed): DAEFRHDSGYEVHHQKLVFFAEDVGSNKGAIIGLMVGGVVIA

In the case of `C#CCOc1ccc(/C=C/C(=O)CC(=O)/C=C/c2ccc(OCC#C)c(OC)c2)cc1OC` [Compound 2, (1E,6E)-1,7-bis(3-methoxy-4-(prop-2-yn-1-yloxy)phenyl)hepta-1,6-diene-3,5-dione], the “anti-aggregation activity, result in words” value (shortened to “anti-aggregation activity”) in data set [1] is given as “did not present anti-aggregation activity”.

Regarding `COc1cc(/C=C/C(O)=C/C(=O)/C=C/c2ccc(OCc3ccccc3)c(OC)c2)ccc1O` [Compound 3, (1E, 4Z, 6E)-1-(4-(benzyloxy)-3-methoxyphenyl)-5-hydroxy-7-(4-hydroxy-3-metho-xyphenyl)hepta-1,4,6-trien-3-one], in data set [1], the “anti-aggregation activity” value is listed as “inhibited the aggregation of Aβ in a concentration-dependent manner”.

As to `COc1cc(/C=C/C(O)=C/C(=O)/C=C/c2ccc(OC(C)=O)c(OC)c2)ccc1O` [Compound 4, 4-((1E,4Z,6E)-5-hydroxy-7-(4-hydroxy-3-methoxyphenyl)-3-oxohepta-1,4,6-trien-1-yl)-2-methoxyphenyl acetate], in data set [1], the IC50 was 1320 ± 700 nM and the “anti-aggregation activity” value is “inhibited the aggregation of Aβ in a concentration-dependent manner”.

For the molecule `C=CCOC(=O)CCC(=O)Oc1ccc(/C=C/C(=O)/C=C(O)/C=C/c2ccc(OC(=O)CCC(=O)OCC=C)c(OC)c2)cc1OC` [Compound 5, diallyl O,O′-(((1E,3Z,6E)-3-hydroxy-5-oxohepta-1,3,6-triene-1,7-diyl)bis(2-methoxy-4,1-phenylene)) disuccinate], in data set [1], the “anti-aggregation activity” value is given as “inhibited the aggregation of Aβ in a concentration-dependent manner”. In addition, in data set [2] (30 μM), the “cytotoxicity (MTT) at 30 μM” value is “exhibited cytotoxicity”. In addition, in data set [3], the “inhibition of IL-6 at 30 μM” value was “complete inhibition” and the “anti-inflammatory activity (IL-6 secretion), result in words” value (shortened to “anti-inflammatory activity”) is reported as “mid-to-strong inhibition”.

For `C=CCOC(=O)CCC(=O)Oc1ccc(/C=C/C(=O)/C=C(O)/C=C/c2ccc(O)c(OC)c2)cc1OC` [Compound 6, allyl (4-((1E,4Z,6E)-5-hydroxy-7-(4-hydroxy-3-methoxyphenyl)-3-oxohepta-1,4,6-trien-1-yl)-2-methoxyphenyl) succinate], in data set [1], the 50% inhibitory concentration (IC50) came out at 1770 ± 900 nM and the “anti-aggregation activity” value was “inhibited the aggregation of Aβ in a concentration-dependent manner”. Further, the “cell viability (MTT)” value in data set [2] is “did not affect the cell viability”. Further, in data set [3], the “inhibition of IL-6 at 30 μM” value was “complete inhibition” and the “anti-inflammatory activity” value is recorded as “mid-to-strong inhibition”.

Regarding `COc1cc(/C=C/C(=O)/C=C(O)/C=C/c2ccc(OC(=O)CCC(=O)OCc3ccccc3)c(OC)c2)ccc1OC(=O)CCC(=O)OCc1ccccc1` [Compound 7, dibenzyl O,O′-(((1E,3Z,6E)-3-hydroxy-5-oxohepta-1,3,6triene-1,7-diyl)bis(2-methoxy-4,1-phenylene)) disuccinate], in data set [3], the “anti-inflammatory activity” value is “did not show any anti-inflammatory activity”.

With `COc1cc(/C=C/C(O)=C/C(=O)/C=C/c2ccc(OC(=O)CCC(=O)OCc3ccccc3)c(OC)c2)ccc1O` [Compound 8, benzyl (4-((1E,4Z,6E)-5-hydroxy-7-(4-hydroxy-3-methoxyphenyl)-3-oxohepta-1,4,6-trien-1-yl)-2-methoxyphenyl) succinate], the “anti-aggregation activity” value in data set [1] is listed as “did not present anti-aggregation activity”. Besides, in data set [2], the “cell viability (MTT)” value is “did not affect the cell viability”. Besides, in data set [3], the “inhibition of IL-6 at 30 μM” value is “complete inhibition” and the “anti-inflammatory activity” value is on record as “mid-to-strong inhibition”.

Regarding `COc1cc(C=CC(=O)C=C(O)C=Cc2ccc(OC(=O)CCC(=O)OC3CCCC3)c(OC)c2)ccc1OC(=O)CCC(=O)OC1CCCC1` [Compound 9, dicyclopentyl O,O′-(((1E,3Z,6E)-3-hydroxy-5-oxohepta-1,3,6-triene-1,7-diyl)bis(2-methoxy-4,1-phenylene)) disuccinate], the “anti-aggregation activity” value in data set [1] was “did not present anti-aggregation activity”. Further, the “anti-inflammatory activity” value in data set [3] is listed as “did not show any anti-inflammatory activity”.

In the case of `COc1cc(/C=C/C(O)=C/C(=O)/C=C/c2ccc(OC(=O)CCC(=O)OC3CCCC3)c(OC)c2)ccc1O` [Compound 10, cyclopentyl (4-((1E,4Z,6E)-5-hydroxy-7-(4-hydroxy-3-methoxyphenyl)-3-oxohepta-1,4,6-trien-1-yl)-2-methoxyphenyl) succinate], in data set [1], the IC50 is 2040 ± 700 nM and the “anti-aggregation activity” value is on record as “inhibited the aggregation of Aβ in a concentration-dependent manner”. Further, the “cell viability (MTT)” value in data set [2] is given as “did not affect the cell viability”. In addition, in data set [3], the “inhibition of IL-6 at 30 μM” value is listed as “complete inhibition” and the “anti-inflammatory activity” value is “mid-to-strong inhibition”.
